# Measured values published in PubChem BioAssay (NCI).
#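 48-hour exposure; five concentrations; linearly interpolated endpoints. GI50 is the concentration that inhibits growth by half. TGI: concentration producing complete growth inhibition.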
# Key:
# Test in all cases: inhibition of tumour cell growth, NCI panel, 48 h
# OVCAR-3 ovarian = tested on: OVCAR-3 ovarian
# 786-0 renal = tested on: 786-0 renal
# RXF 393 renal = tested on: RXF 393 renal
# HCT-116 colon = tested on: HCT-116 colon
# HT29 colon = tested on: HT29 colon
# SNB-75 CNS = tested on: SNB-75 CNS
# HCC-2998 colon = tested on: HCC-2998 colon
# OVCAR-5 ovarian = tested on: OVCAR-5 ovarian
# SF-268 CNS = tested on: SF-268 CNS
# EKVX NSCLC = tested on: EKVX NSCLC
Structure (SMILES),GI50 (OVCAR-3 ovarian),TGI (OVCAR-3 ovarian),GI50 (786-0 renal),TGI (786-0 renal),GI50 (RXF 393 renal),TGI (RXF 393 renal),GI50 (HCT-116 colon),TGI (HCT-116 colon),GI50 (HT29 colon),TGI (HT29 colon),GI50 (SNB-75 CNS),TGI (SNB-75 CNS),GI50 (HCC-2998 colon),TGI (HCC-2998 colon),GI50 (OVCAR-5 ovarian),TGI (OVCAR-5 ovarian),GI50 (SF-268 CNS),TGI (SF-268 CNS),TGI (EKVX NSCLC),GI50 (EKVX NSCLC)
CCC1CCc2nc3sc(C(=O)Nc4ccccc4F)c(N)c3cc2C1 (configuration not stated),0.454 µM,8.98 µM,41.7 µM,> 100 µM,1.18 µM,> 100 µM,1.36 µM,> 100 µM,0.915 µM,> 100 µM,2.16 µM,> 100 µM,> 100 µM,> 100 µM,22.8 µM,> 100 µM,16.8 µM,> 100 µM,–,–
CN1CCC23c4c5ccc(O)c4OC2C(=NN=C2CCC4(O)C6Cc7ccc(O)c8c7C4(CCN6C)C2O8)CCC3(O)C1C5 (configuration not stated),–,> 100 µM,–,> 100 µM,–,–,–,–,–,> 100 µM,–,> 100 µM,–,> 100 µM,–,> 100 µM,–,> 100 µM,> 100 µM,–
COc1cccc(/C=C(/C(=O)O)c2cc(OC)c(OC)c(OC)c2)c1,–,> 100 µM,–,> 100 µM,–,> 100 µM,–,> 100 µM,–,> 100 µM,–,> 100 µM,–,–,–,–,–,> 100 µM,> 100 µM,–
O=c1[nH]cnc2c(C3OC(CO)C(O)C3O)[nH]nc12 (configuration not stated),–,53.5 µM,–,> 100 µM,–,> 100 µM,–,> 100 µM,–,> 100 µM,–,> 100 µM,–,> 100 µM,–,> 100 µM,–,–,> 100 µM,–
Oc1c(Br)cc(Br)cc1CN(Cc1cc(Br)cc(Br)c1O)C1CCCCC1,–,53.8 µM,–,> 100 µM,–,> 100 µM,–,> 100 µM,–,64.8 µM,–,71.5 µM,–,–,–,> 100 µM,–,71.9 µM,92.5 µM,–
C/C(=N\O)c1sc(-n2nc(-c3ccccc3)cc2-c2ccccc2)nc1C,–,> 31.6 µM,–,15.8 µM,–,–,–,17.1 µM,–,19 µM,–,> 31.6 µM,–,18.2 µM,–,–,–,19.8 µM,> 31.6 µM,–
COC1=CC(=O)c2ccc(C(C)C)cc2C1(C)C1=NC(C)(C)CO1 (configuration not stated),–,> 100 µM,–,> 100 µM,–,> 100 µM,–,> 100 µM,–,> 100 µM,–,> 100 µM,–,–,–,–,–,> 100 µM,> 100 µM,–
CCOC(=O)C1Cc2c(ccc(OC)c2OC)C(=O)C1N (configuration not stated),–,> 100 µM,–,> 100 µM,–,> 100 µM,–,> 100 µM,–,> 100 µM,–,> 100 µM,–,> 100 µM,–,> 100 µM,–,–,36.1 µM,–
CC(=O)[O-].CC(=O)[O-].[Mn+2].c1ccc(/C(=N\Nc2ccccn2)c2ccccn2)cc1,–,0.00913 µM,0.097 µM,13.8 µM,–,14 µM,–,0.739 µM,0.00276 µM,11.3 µM,–,17.7 µM,–,14.8 µM,–,–,–,13.5 µM,19.9 µM,0.0187 µM
CC[O-].CC[O-].[O-]c1ccccc1C=Nc1ccccc1.[O-]c1ccccc1C=Nc1ccccc1.[Ti+4],> 100 µM,> 100 µM,> 100 µM,> 100 µM,> 100 µM,> 100 µM,31.8 µM,> 100 µM,> 100 µM,> 100 µM,–,–,82.9 µM,> 100 µM,> 100 µM,> 100 µM,> 100 µM,> 100 µM,> 100 µM,> 100 µM
